Laboratory results taken from US12168676B2, “Microbially derived peptides and proteins for immunotherapy” (Genevive, Inc., priority 2019, dated 2024).
“Also recorded” adds a separate entry of the source.

Legend:
[1] = system: Splenocytes isolated from naive male C57BL/6 mice; experiment: Stimulation of murine naïve splenocytes (Example 1); format: cell-based, mouse; conditions: 10 μM peptide
Description: This example describes an initial screening assay to identify Bifidobacterium-derived peptides which can activate effector T cells, specifically, CD4 effector T cells which are characterized in part by a CD4^+ CD25^+ FoxP3^− phenotype and CD8 effector cells which are characterized in part by a CD8^+ CD25^+ FoxP3^− phenotype. Splenocytes isolated from naive male C57BL/6 mice (Taconic, 8-14 weeks of age) were resuspended in complete RPMI (RPMI containing 10% FBS plus 1% penicillin/streptomycin) to a final number of 8×10^5 cells/well in a flat-bottom 96-well plate. Cells were then stimulated with 0.05 μg/ml anti-CD3 antibody in the presence of: each peptide (10 μM in water) or ovalbumin peptide amino acids 323-339 (10 μM in water), water (Th0 min H2O), anti-CD3 antibody alone (Th0 min), or with 1 μg/ml anti-CD3, plus IL-12 (10 ng/ml), plus 5 μg/ml anti-IL-4 antibody (positive control to generate Th1 cells). Cells were incubated at 37° C., 5% CO2 for 48 h. See. FIG. 2A, FIG. 2B, and FIG. 2C.
Levels of activated (Tact) CD4 (FIG. 2A) and CD8 (FIG. 2B) T cells, defined by absence of FoxP3 and high CD25 expression, were determined by multicolor flow cytometry. Levels of T cells were then normalized to levels of the T cells when the splenocytes were treated with the OV323-339 negative control peptide. See Levels of IL-2 (FIG. 2C) and IL-17 (FIG. 2D) in culture supernatants were quantified by Luminex analysis. Levels of Granzyme B expression on gated CD8 FoxP3^− T cells were analyzed by flow cytometry. Bars represent mean±SD. (vs. Th0+H2O) by Kruskall-Wallis with uncorrected Dunn's test.
A dose response study was also performed using the above methods wherein naïve mouse splenocytes were treated with increasing doses of SG-3-0020 (1 μM, 5 μM, or 10 μM). Flow cytometry analysis was done to measure frequency of effector CD8 T cells (CD8^+, CD25^+, FoxP3), granzyme B expression on the effector CD8 T cells, and IL-2 expression.

human T cells [2] = experiment: Human T cell activation assay, anti-CD3 stimulated purified T cells (Example 2); format: cell-based
Experimental: PBMCs were obtained from 5 individual human donors. […] Furthermore, incubation of the T cells with SG-3-0020 increased secretion of IL-2 and IFN-γ (FIG. 6B). […] Such activation may enhance immune action against a tumor in vivo with or without a co-therapy.

[3] = system: CT26 tumor-bearing Balb/c mice; experiment: Tumor infiltrating lymphocyte composition/activation in CT26 tumor-bearing Balb/c mice (Examples 3 and 9); format: in vivo, mouse
Experimental: In vivo studies were performed to study the effects of SG-3-0020 administration on, e.g., immune cell activation and tumor size and to test different routes of administration of SG-3-0020 in CT26 tumor-bearing Balb/c mice and its effects on immune modulation. This mouse model is one of the most widely used mouse models for preclinical testing of new immunotherapeutic drugs (Grosso and Jure-Kunkel, 2013, Cancer Immun, 13:5).
Mice were dosed i.v., i.p., p.t. with SG-3-0020 or PBS. For comparison mice were dosed with CD80-Fc or IgG1-Fc i.v. On Day 7, tumor samples were analyzed for tumor infiltrating lymphocyte (TIL) composition/activation by flow cytometry. The protocol used in this experiment is illustrated in FIG. 7A.
BALB/c male mice (n=5-6/group, 8 weeks of age) were inoculated s.c. with CT26 colon carcinoma cells. SG-B was administered in PBS peritumorally daily at 2.5 mg/kg. Control mice were injected with the corresponding volume of PBS. At Day 13 (AH1 staining)) or Day 7 (Ki67, CD25, OX40 staining) excised tumors were washed with PBS, dissected into smaller fragments using scalpels, and further dissociated into single cell suspensions using the Miltenyi Tumor Dissociation Kit and the GentleMACS Octo dissociator. The digested tumors were filtered through pre-separation filters, washed with PBS, and then used for flow cytometry-based analysis. T lymphocytes were gated as CD4^+ or CD8^+ and then analyzed for surface marker expression by FlowJo 10.5.3. p values calculated by Mann-Whitney test.

CT26 mouse model = experiment: CT26 mouse model, tumor volume, monotherapy; format: in vivo; conditions: preliminary results, data not shown
[4] = system: T cells isolated from mouse spleens; experiment: Mouse T cell activation, anti-CD3 coated plates (Example 4); format: cell-based; conditions: 10 mcM peptide, anti-CD3 0.1 mcg/mL, 48 hours
Experimental: 96-well culture plates were pre-coated with anti-CD3 (0.1 mcg/mL) in 200 mcL. The plates were incubated overnight at 4° C. The plates were washed with PBS three times before plating the cells (Balb/c splenocytes for T-cell isolation by EasySep™ #19851). The cells were plated at 100-200K/well in final volume of 200 mcL of AIM-V. Peptides (10mcM) or 2 mcg/mL anti-CD28 were added to the cells. The cells were incubated for 48 hours at 37° C.
The incubated cells were used for flow cytometry analysis. SG-3-0020 increased expression of T cell activation markers and proliferation of CD4 and CD8 T cells isolated from mouse spleens (FIG. 11A).
The supernatants were used for MSD analysis. SG-3-0020 increased secretion of effector cytokines by T cells isolated from mouse spleens. (FIG. 11B)

human T cells [5] = experiment: Activation markers and cytokine secretion with or without anti-CD3, or with CD3/CD28 activator, T cells (Example 5); format: cell-based
Experimental: (§1) Activation marker expression on T cells and PBMCs in the presence of peptides (10mcM) or anti-CD28 (10 mcg/mL) was determined after 48 hours of incubation, with or without 0.1 mcg/mL anti-CD3. The data were analyzed by flow cytometry (FIG. 13A-D).
Cytokine secretion on T cells in the presence of peptides (10mcM) or anti-CD28 (10 mcg/mL) after 48 h of incubation, with or without 0.1 mcg/mL anti-CD3, was determined. The data were analyzed by MSD (FIG. 14).
Human T cells were activated with ImmunoCult™ Human CD3/CD28 T Cell Activator in the presence of peptides (10mcM) and cytokine secretion was analyzed after 48 hours of incubation by MSD. […] Activation with anti-CD3 on both isolated T cells and PBMCs was required for SG-3-0020-mediated effects.

PBMCs = experiment: Activation marker expression with or without anti-CD3, PBMCs (Example 5); format: cell-based, human; conditions: 10 mcM, with or without 0.1 mcg/mL anti-CD3, 48 hours
Experimental: as §1

activated human T cell = experiment: NanoString nCounter Human PanCancer Immune profiling of activated T cells (Example 6); format: cell-based; conditions: RNA, T cells of 5 donors, 10 μM vs vehicle
Experimental: T cells were isolated from 5 individual blood donors and activated as described previously. RNA expression levels were determined by the NanoString nCounter Human PanCancer Immune profiling.

human T cells [6] = experiment: Phage binding to T cells, titers of eluted phages (Example 7)
Experimental: The binding of SG-3-0020 phages to target cells (naïve T-cell, activated T-cell) was tested.
Biotinylated peptide stock (1 mM) was diluted to 1 uM (×1,000-fold) with 1×PBS+2% BSA. 150 mcL of phages (multivalent display) were mixed with 70 mcL of 1×PBS+2% BSA. The solution was rotated at room temperature for 1 hour.
The cells, either naïve T-cells (about 13×10^6 cells) or activated T-cells (about 16×10^6 cells) were thawed. The cells were then centrifuged at 1,500 for 5 min at 4° C., and the supernatant was aspirated. The cell pellets were washed with 5 mL of 1×PBS+2% BSA by pipetting. This was repeated such that the pellets were centrifuged and washed a total of 3 times.
The cell pellets were resuspended with 1050 mcL of 1×PBS+2% BSA, and 100 mcL of phage (M13 bacteriophage G8P capsid antibody-FITC from antibodies-online Inc (Cat #: ABIN 125966)) were added into a well of 96-well plates (phage binding). 150 mcL of diluted biotinylated peptide were added into a well of 96-well plates (biotinylated peptide binding). 100 mcL of resuspended cells were added into the wells for phage binding and 50 mcL of resuspended cells were added into the wells for biotinylated peptide binding.
The cells were put on the rocker and incubated at 4° C. for 2 hours for binding and then centrifuged at 1,500 for 5 min at 4° C. The supernatant was discarded. […]

[7] = 0.05 μg/ml anti-CD3, 48 h, flow cytometry
[8] = anti-CD3 stimulated purified T cells
[9] = anti-CD3 stimulated purified T cells, 5 donors
[10] = vs activated T cells without SG-3-0020, data not shown
[11] = peri-tumoral injections twice daily (b.i.d.)

SG-3-0020: Bifidobacterium breve-derived peptide, SEQ ID NO:1 MLSTKKTKTHDHYPCGRMRDPGWHDWRACLTHQGIEEDEWPV, chemically synthesized for the Examples (Bifidobacterium breve)
facilitate: IL-2 secretion in culture supernatants ([1]; 48 h, Luminex) | IL-17 secretion in culture supernatants ([1]; 48 h, Luminex)
binds: binding to human T cells (human T cells [6]; FIG. 17, phage titer)
5/5: cytokine-stimulating activity, donors responding (human T cells [2]; purified T cell system in the presence of anti-CD3 antibody)
more bound: phage titer, binding to the activated T-cells compared to empty phages (human T cells [6]; multivalent display phage, 4° C., 2 hours)
promote induction: Granzyme B expression in CD8 T cells ([1]; 48 h, flow cytometry)
increases: activated CD8+ T cell frequency within the TIL compartment ([3]; mouse, in vivo)
positive effect: Tetramer staining (AH1 epitope) ([3]; Day 13)
increases activity: cytokine secretion in combination with anti-CD28 activation (human T cells [5]; ImmunoCult Human CD3/CD28 T Cell Activator, 10 mcM peptide, 48 hours, MSD)
increased: IFN-γ secretion (human T cells [2]; [8]) | IL-2 secretion (human T cells [2]; [8]) | PD-1 expression on CD4+ cells (human T cells [2]; [9]) | PD-1 expression on CD8+ cells (human T cells [2]; [9]) | secretion of effector cytokines ([4]; MSD) | expression of T cell activation markers ([4]; flow cytometry) | proliferation of CD4 and CD8 T cells ([4]; flow cytometry)
increase: IL-10 secretion (human T cells [2]; [8]) | TNF-α secretion (human T cells [2]; [8]) | CD4+CD25+ T cells (human T cells [2]; [10]) | CD4+ICOS+ T cells (human T cells [2]; [10]) | CD4+OX40+ T cells (human T cells [2]; [10]) | CD8+ICOS+ T cells (human T cells [2]; [10]) | CD8+OX40+ T cells (human T cells [2]; [10]) | CD8CD25+ T cells (human T cells [2]; [10]) | CD8+CD25+ cells in tumor infiltrating lymphocytes ([3]; Day 7, flow cytometry) | CD8+Ki67+ cells in tumor infiltrating lymphocytes ([3]; Day 7, flow cytometry) | CD8+OX40+ cells in tumor infiltrating lymphocytes ([3]; Day 7, flow cytometry) | NK cells in tumor infiltrating lymphocytes ([3]; Day 7, flow cytometry) | NK cell frequency in the TIL compartment [3, 11] | activated CD8+ T cell frequency in the TIL compartment [3, 11] | CTSL expression (activated human T cell) | DUSP6 expression (activated human T cell) | IL-2 expression (activated human T cell) | IL-3 expression (activated human T cell) | IL-9 expression (activated human T cell) | IL-10 expression (activated human T cell) | IL-21 expression (activated human T cell) | IL-24 expression (activated human T cell)
required: dependence of SG-3-0020-mediated effects on activation with anti-CD3, isolated T cells (human T cells [5]; 10 mcM, with or without 0.1 mcg/mL anti-CD3, 48 hours) | dependence of SG-3-0020-mediated effects on activation with anti-CD3, PBMCs (PBMCs)
increase; also recorded: enhance: frequency of activated (Tact) CD4 T cells (CD25+/FoxP3-) [1, 7] | frequency of activated (Tact) CD8 T cells (CD25+/FoxP3-) [1, 7]
decrease: tumor volume (CT26 mouse model) | CD96 expression (activated human T cell) | CXCL10 expression (activated human T cell) | CXCR6 expression (activated human T cell) | GZMK expression (activated human T cell) | IRF1 expression (activated human T cell) | ISG20 expression (activated human T cell) | LY9 expression (activated human T cell) | SLAMF7 expression (activated human T cell) | SMAD3 expression (activated human T cell) | STAT1 expression (activated human T cell) | TCF7 expression (activated human T cell)
